Activity data for one molecule are collected here from ChEMBL document CHEMBL3046767, “Antihepatotoxic activity of a sterol glucoside from aerial parts of Clerodendrum phlomidis” (2012).

Calls of active or inactive are those of the source. The rule behind the calls is not given here.

Test [1] deals with Rattus norvegicus. The test is described as follows: Antihepatotoxic activity Rattus norvegicus albino Wistar (rat) assessed as reduction of CCl4-induced increase of serum SGPT level at 50 mg/kg, po relative to control. The format is functional. Set-up: scale not given: the % may be the effect or the level left.
In test [2] the test system is Rattus norvegicus. The test is described as follows: Antihepatotoxic activity Rattus norvegicus albino Wistar (rat) assessed as reduction of CCl4-induced reduction of serum total protein level at 50 mg/kg, po relative to control. It is filed as functional. The arrangement: scale not given: the % may be the effect or the level left.
The subject of test [3] is Rattus norvegicus. In words: Antihepatotoxic activity Rattus norvegicus albino Wistar (rat) assessed as reduction of CCl4-induced increase of serum ALP level at 50 mg/kg, po relative to control. It is filed as functional. The arrangement: scale not given: the % may be the effect or the level left.
The test system of test [4] is Rattus norvegicus. In words: Antihepatotoxic activity Rattus norvegicus albino Wistar (rat) assessed as reduction of CCl4-induced increase of serum SGOT level at 50 mg/kg, po relative to control. The format is functional. The arrangement: scale not given: the % may be the effect or the level left.
Test [5] relates to Rattus norvegicus. The test is described as follows: Antihepatotoxic activity Rattus norvegicus albino Wistar (rat) assessed as recovery of CCl4-induced cell damage at 50 mg/kg, po by hematoxylin and eosin staining. The format is functional, organism-based. The arrangement: dose 50 mg/kg.

For `C=C(C)C(/C=C/[C@@H](C)[C@H]1CCC2C3CC=C4C[C@@H](O[C@@H]5O[C@H](CO)[C@@H](O)[C@H](O)[C@H]5O)CC[C@]4(C)C3CC[C@@]21C)CC` (stereo not given in full), the Activity in the test on Rattus norvegicus [1] came to 52.25%; in the test on Rattus norvegicus [2], 121.19%; in the test on Rattus norvegicus [3], 74.77%; in the test on Rattus norvegicus [4] it was 57.71%. In addition, the result with Rattus norvegicus [5] was Active.
